The results in this text go back to ChEMBL document CHEMBL5550160, “Leveraging a rationally designed veliparib-based anilide eliciting anti-leukemic effects for the design of pH-responsive polymer nanoformulation” (Eur J Med Chem, 2024).

Active and inactive are the calls of the source. The rule behind the calls is not given here.

For experiment [1], the system named is HL-60. Nature of the experiment: Induction of cell cycle arrest in G0/G1 phase in human HL-60 cells assessed as downregulation of AKT protein expression at 0.5 to 1 times IC50 by Western blot analysis. The format is functional, cell-based. On the technique in general: Immunoblotting shows a protein as a band on a membrane.
Experiment [2] has as its target T1, Protein deacetylase HDAC6 (Homo sapiens) (UniProt Q9UBN7).
T1 sequence (whole entry): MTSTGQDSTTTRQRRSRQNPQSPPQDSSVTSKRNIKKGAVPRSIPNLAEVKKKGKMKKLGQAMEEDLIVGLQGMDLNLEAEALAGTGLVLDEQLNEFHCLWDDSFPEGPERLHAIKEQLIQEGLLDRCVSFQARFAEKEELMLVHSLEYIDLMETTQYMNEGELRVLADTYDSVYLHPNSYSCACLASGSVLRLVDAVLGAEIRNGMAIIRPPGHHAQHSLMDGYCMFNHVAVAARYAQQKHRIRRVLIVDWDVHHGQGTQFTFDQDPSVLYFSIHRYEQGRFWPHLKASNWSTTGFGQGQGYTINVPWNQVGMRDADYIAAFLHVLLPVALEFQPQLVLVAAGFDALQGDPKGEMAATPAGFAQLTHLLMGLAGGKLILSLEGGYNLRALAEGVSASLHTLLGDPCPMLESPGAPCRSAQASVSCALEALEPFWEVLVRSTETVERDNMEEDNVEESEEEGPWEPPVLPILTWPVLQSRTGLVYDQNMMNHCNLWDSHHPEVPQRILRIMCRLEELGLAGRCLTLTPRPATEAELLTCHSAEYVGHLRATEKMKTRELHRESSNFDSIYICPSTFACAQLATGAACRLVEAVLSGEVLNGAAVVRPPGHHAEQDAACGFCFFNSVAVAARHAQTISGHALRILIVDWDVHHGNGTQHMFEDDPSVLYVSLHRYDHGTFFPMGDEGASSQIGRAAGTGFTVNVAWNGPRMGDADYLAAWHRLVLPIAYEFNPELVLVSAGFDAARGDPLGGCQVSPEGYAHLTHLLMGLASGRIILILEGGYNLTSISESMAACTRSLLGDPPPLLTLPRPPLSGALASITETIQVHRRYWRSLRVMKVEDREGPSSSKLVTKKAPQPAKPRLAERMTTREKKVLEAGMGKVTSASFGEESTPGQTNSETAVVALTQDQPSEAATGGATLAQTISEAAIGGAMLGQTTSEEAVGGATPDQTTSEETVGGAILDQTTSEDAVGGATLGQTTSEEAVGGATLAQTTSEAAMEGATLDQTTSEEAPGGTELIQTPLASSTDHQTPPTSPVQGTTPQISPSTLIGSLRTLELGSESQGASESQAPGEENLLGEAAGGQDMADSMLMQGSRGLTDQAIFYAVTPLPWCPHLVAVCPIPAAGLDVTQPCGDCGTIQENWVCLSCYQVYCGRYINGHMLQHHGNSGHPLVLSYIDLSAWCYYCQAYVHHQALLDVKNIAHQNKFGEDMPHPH
In words: Inhibition of HDAC6 (unknown origin) using p53 residues 379 to 382 [RHKK(Ac)] as fluorogenic substrate assessed as residual activity at 1 x 10^-5M (reference value: 101.06%). Particulars: dose 1.0 10^-5M.

Experiment [3] concerns the target T1, Protein deacetylase HDAC6 (Homo sapiens). In words: Inhibition of HDAC6 (unknown origin) using p53 residues 379 to 382 [RHKK(Ac)] as fluorogenic substrate assessed as residual activity at 1.52 x 10^-9M (reference value: 101.06%). As to conditions: dose 1.52 10^-9M.
In experiment [4] the target is Histone deacetylase 3 (Homo sapiens, UniProt O15379). In words: Inhibition of HDAC3 (unknown origin) using p53 residues 379 to 382 [RHKK(Ac)] as fluorogenic substrate assessed as residual activity at 4.12 x 10^-8M (reference value: 103.08%). Particulars: dose 4.12 10^-8M.
Chain of Histone deacetylase 3 (O15379 whole entry, the tested form may be a part): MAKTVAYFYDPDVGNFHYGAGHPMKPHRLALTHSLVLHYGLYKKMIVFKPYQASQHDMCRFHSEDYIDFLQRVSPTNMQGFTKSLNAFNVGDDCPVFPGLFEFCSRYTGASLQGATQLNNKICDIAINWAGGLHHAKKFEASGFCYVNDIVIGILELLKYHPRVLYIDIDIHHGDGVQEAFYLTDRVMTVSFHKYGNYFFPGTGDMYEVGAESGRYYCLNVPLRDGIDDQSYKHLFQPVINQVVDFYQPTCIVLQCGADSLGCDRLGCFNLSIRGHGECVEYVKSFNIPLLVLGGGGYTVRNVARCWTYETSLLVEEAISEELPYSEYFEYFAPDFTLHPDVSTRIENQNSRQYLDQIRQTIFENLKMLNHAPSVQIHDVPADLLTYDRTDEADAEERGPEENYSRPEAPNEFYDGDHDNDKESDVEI
In experiment [5] the target is Histone deacetylase 9 (Homo sapiens) (UniProt Q9UKV0). Nature of the experiment: Inhibition of HDAC9 (unknown origin) assessed as residual activity at 1.23 x 10^-7M (reference value: 97.55%). As to conditions: dose 1.23 10^-7M.
Chain of Histone deacetylase 9 (Homo sapiens) (Q9UKV0 whole entry, the tested form may be a part): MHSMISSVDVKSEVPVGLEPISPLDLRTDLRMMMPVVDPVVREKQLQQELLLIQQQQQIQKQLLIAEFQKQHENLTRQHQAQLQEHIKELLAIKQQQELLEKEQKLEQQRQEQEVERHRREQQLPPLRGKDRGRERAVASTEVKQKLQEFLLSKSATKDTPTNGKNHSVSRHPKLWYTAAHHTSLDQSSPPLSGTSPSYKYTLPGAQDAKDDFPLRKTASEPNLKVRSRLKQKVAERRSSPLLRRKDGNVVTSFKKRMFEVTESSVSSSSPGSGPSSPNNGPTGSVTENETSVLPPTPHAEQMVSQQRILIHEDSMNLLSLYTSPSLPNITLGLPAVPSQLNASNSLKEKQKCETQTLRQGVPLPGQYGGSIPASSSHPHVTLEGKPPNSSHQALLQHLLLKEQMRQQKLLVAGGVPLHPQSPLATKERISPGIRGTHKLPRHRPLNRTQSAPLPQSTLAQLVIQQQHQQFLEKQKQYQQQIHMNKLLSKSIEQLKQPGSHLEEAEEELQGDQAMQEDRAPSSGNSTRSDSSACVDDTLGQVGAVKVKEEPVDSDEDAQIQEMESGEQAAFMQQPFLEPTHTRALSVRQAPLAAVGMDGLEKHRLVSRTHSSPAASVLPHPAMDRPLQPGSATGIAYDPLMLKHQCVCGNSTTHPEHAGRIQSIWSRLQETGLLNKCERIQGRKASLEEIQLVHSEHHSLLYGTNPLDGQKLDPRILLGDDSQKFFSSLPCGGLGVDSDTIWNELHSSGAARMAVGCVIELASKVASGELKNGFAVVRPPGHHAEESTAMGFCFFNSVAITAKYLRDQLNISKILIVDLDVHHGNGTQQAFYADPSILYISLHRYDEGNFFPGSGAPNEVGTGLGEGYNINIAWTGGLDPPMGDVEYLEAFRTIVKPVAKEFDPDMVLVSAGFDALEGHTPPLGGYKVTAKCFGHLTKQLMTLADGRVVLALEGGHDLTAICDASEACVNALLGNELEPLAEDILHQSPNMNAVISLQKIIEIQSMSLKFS
Experiment [6] deals with Histone deacetylase 1 (Homo sapiens, UniProt Q13547). In words: Inhibition of HDAC1 (unknown origin) using p53 residues 379 to 382 [RHKK(Ac)] as fluorogenic substrate assessed as residual activity at 5.08 x 10^-10M (reference value: 98.06%). Particulars: dose 5.08 10^-10M.
Chain of Histone deacetylase 1 (Q13547 whole entry, the tested form may be a part): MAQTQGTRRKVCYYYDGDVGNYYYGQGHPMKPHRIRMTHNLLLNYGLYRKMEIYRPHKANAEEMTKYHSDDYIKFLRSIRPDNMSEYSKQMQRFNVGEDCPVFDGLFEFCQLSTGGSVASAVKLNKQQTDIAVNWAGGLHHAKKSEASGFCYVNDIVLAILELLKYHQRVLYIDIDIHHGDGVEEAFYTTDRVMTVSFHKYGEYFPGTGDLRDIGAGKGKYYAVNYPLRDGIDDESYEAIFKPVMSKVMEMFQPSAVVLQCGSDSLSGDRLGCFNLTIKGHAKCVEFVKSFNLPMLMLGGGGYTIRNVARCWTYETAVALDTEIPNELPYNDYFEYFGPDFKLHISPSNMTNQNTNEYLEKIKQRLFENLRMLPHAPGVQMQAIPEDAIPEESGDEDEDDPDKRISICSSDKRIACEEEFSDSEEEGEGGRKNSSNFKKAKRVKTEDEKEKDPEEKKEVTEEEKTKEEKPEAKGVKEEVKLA
For experiment [7], the system named is HL-60. Nature of the experiment: Downregulation of HDAC1 protein expression in human HL-60 cells by Western blot analysis. The format is functional, cell-based. As to conditions: dose 0.2-5 µM.
The subject of experiment [8] is HL-60. In words: Induction of cell cycle arrest in G0/G1 phase in human HL-60 cells at 0.5 to 1 times IC50 by PI staining based flow cytometry analysis. The format is functional. In general terms: Flow cytometry measures light scatter and fluorescence of single cells or particles in a stream.
Experiment [9] concerns the target T1, Protein deacetylase HDAC6 (Homo sapiens). Nature of the experiment: Inhibition of HDAC6 (unknown origin) using p53 residues 379 to 382 [RHKK(Ac)] as fluorogenic substrate assessed as residual activity at 1.11 x 10^-6M (reference value: 101.06%). As to conditions: dose 1.1 10^-6M.
The target of experiment [10] is T2, Histone deacetylase 8 (Homo sapiens) (UniProt Q9BY41).
T2 sequence (whole entry): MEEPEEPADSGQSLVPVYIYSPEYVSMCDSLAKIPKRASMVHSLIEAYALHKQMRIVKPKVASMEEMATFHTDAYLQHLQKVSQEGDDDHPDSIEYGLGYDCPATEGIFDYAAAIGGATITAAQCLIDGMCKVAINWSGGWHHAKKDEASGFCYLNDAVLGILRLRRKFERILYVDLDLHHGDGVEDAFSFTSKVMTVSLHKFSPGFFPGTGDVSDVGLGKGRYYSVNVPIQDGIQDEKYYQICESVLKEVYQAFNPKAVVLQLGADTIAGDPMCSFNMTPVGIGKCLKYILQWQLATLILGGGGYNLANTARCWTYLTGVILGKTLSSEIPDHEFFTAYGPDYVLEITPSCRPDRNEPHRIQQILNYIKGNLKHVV
In words: Inhibition of HDAC8 (unknown origin) assessed as residual activity at 5.08 x 10^-10M (reference value: 100%). Particulars: dose 5.08 10^-10M.

Experiment [11] addresses Histone deacetylase 5 (Homo sapiens) (UniProt Q9UQL6). Nature of the experiment: Inhibition of HDAC5 (unknown origin) assessed as residual activity at 3.70 x 10^-7M (reference value: 100%). Particulars: dose 3.7 10^-7M.
In experiment [12] the target is T2, Histone deacetylase 8 (Homo sapiens). Nature of the experiment: Inhibition of HDAC8 (unknown origin) assessed as residual activity at 1 x 10^-5M (reference value: 100%). Particulars: dose 1.0 10^-5M.

Chain of Histone deacetylase 5 (Homo sapiens) (Q9UQL6 whole entry): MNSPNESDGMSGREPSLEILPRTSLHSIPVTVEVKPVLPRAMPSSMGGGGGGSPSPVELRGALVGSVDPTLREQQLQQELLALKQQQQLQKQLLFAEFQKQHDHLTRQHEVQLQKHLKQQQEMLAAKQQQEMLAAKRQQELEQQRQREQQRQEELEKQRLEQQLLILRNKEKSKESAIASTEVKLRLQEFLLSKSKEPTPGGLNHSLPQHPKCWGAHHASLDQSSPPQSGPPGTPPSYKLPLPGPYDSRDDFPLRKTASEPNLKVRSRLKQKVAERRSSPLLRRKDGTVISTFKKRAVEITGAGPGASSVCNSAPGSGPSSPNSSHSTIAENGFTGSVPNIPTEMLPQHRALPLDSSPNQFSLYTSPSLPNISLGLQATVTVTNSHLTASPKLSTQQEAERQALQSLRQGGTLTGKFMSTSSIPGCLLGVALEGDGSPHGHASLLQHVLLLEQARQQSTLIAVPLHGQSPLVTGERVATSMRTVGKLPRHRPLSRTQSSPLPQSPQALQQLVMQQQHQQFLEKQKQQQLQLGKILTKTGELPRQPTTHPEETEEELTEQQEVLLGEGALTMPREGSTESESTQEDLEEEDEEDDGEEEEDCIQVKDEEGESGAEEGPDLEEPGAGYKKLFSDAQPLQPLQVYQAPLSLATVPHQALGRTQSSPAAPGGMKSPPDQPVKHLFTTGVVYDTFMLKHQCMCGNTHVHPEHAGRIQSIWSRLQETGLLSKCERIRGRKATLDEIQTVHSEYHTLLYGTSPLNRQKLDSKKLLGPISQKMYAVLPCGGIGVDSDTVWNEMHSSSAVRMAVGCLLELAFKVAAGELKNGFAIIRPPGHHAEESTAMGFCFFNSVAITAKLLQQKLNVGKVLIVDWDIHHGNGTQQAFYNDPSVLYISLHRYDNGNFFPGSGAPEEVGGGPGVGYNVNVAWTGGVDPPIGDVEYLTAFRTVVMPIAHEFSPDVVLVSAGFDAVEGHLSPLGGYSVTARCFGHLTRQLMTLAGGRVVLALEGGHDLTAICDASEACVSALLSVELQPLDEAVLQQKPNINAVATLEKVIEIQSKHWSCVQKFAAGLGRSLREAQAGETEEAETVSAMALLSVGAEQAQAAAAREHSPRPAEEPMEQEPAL

For `NC(=O)c1cccc2[nH]c(-c3ccc(NCc4ccc(C(=O)Nc5ccccc5N)cc4)cc3)nc12`, the outcome in experiment [1] was Active. Also, the Activity is 107% in experiment [2]; 96.7% in [3]; 91.1% in experiment [4]; 88.5% in experiment [5]; 93.5% in experiment [6]; “Dose-Dependent Effect” in experiment [7]. Moreover, the Activity entry in experiment [8] is “Dose-Dependent Effect”; in [9] it was 79.8%; in experiment [10], 105%; in [11], 77.6%; in experiment [12], 69.5%.
